Test results taken from patent US20050065071A1, “Cyclic analogs of human parathyroid hormone for the treatment of conditions characterized by hyperproliferative skin cells” (National Research Council of Canada, priority 2003, published 2005).
Bridges are numbered along the chain shown (N, C = ends). Where no end group is shown, it is not given here.

System: skin cells
Assay: Topical administration to SKH-1 hairless mice, skin cell proliferation by ^3H-thymidine incorporation
Assay type: in vivo
Details: 1 μg, 10 μg or 50 μg once a day, 7 days, analog given with Novasome, compared with hPTH-(1-34) and untreated control (FIG. 6)
Experimental: FIG. 6 is a histogram showing the effects of no treatment (Control) or of topical administration of 1 μg, 10 μg, or 50 μg of hPTH-(1-34) (1-34) or [Leu^27]cyclo(Glu^22-Lys^26)-hPTH-(1-31)-NH2 (c1-c31) to SKH-1 mice on the proliferation of skin cells, as measured by ^3H-thymidine incorporation (counts per minute/μg protein) in SKH-1 mice after 7 days of administration.
SKH-1 hairless mice were administered the human parathyroid hormone hPTH analog [Leu^27]cyclo(Glu^22-Lys^26)-hPTH-(1-31)-NH2 with Novasome (a liposomal formulation available, for example, from IGI, Inc., Buena, N.J.) or hPTH-(1-34) at dosages of 1 μg, 10 μg, or 50 μg once a day, or were left untreated (control). On day 7, the mice were injected twice with ^3H-thymidine, and on day 8, the mice were injected with ^3H-thymidine and bromodeoxyuridine (1.5 mg/mouse) and sacrificed within 3 hours. ^3H-thymidine incorporation was then assessed, using standard methods. The results of this study are shown in FIG. 6, which is a histogram showing the effects of no treatment (Control) or of topical administration of 1 μg, 10 μg, or 50 μg of hPTH-(1-34) (1-34) or [Leu^27]cyclo(Glu^22-Lys^26)-hPTH-(1-31)-NH2 (c1-c31) on proliferation of skin cells, as measured by ^3H-thymidine incorporation (counts per minute/μg protein) in SKH-1 mice. […]

Q: With “[Leu^27]cyclo(Glu^22-Lys^26)-hPTH-(1-31)-NH2 (SVSEIQLMHNLGKHLNSMERVEWLRKLLQDV-NH2; lactam 22-26; N-terminus assumed; SMILES CC[C@H](C)[C@H](NC(=O)[C@H](CCC(=O)O)NC(=O)[C@H](CO)NC(=O)[C@@H](NC(=O)[C@@H](N)CO)C(C)C)C(=O)N[C@@H](CCC(N)=O)C(=O)N[C@@H](CC(C)C)C(=O)N[C@@H](CCSC)C(=O)N[C@@H](Cc1c[nH]cn1)C(=O)N[C@@H](CC(N)=O)C(=O)N[C@@H](CC(C)C)C(=O)NCC(=O)N[C@@H](CCCCN)C(=O)N[C@@H](Cc1c[nH]cn1)C(=O)N[C@@H](CC(C)C)C(=O)N[C@@H](CC(N)=O)C(=O)N[C@@H](CO)C(=O)N[C@@H](CCSC)C(=O)N[C@@H](CCC(=O)O)C(=O)N[C@@H](CCCNC(=N)N)C(=O)N[C@H](C(=O)N[C@H]1CCC(=O)NCCCC[C@@H](C(=O)N[C@@H](CC(C)C)C(=O)N[C@@H](CC(C)C)C(=O)N[C@@H](CCC(N)=O)C(=O)N[C@@H](CC(=O)O)C(=O)N[C@H](C(N)=O)C(C)C)NC(=O)[C@H](CCCNC(=N)N)NC(=O)[C@H](CC(C)C)NC(=O)[C@H](Cc2c[nH]c3ccccc23)NC1=O)C(C)C)” as the substance, how does the “proliferation of skin cells, as measured by ^3H-thymidine incorporation” value read?
A: significantly more effective at inhibiting ^3H-thymidine incorporation than hPTH-(1-34)

Q: With “cyclo(Lys^26-Asp^30) [Leu^27]-hPTH-(1-31)-NH2” as the substance, how does the “proliferation of skin cells, as measured by ^3H-thymidine incorporation” value read?
A: Decreases Skin Cell Proliferation
